In PubChem BioAssay (NCI):
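A five-concentration, 48-hour dose response in 96-well plates underlies each endpoint, interpolated linearly between surrounding concentrations. TGI denotes the concentration required for complete inhibition of growth.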

Key:
Assay in all cases: NCI anticancer screen, dose series, 48 h
NCI-H23 lung = test system: NCI-H23 lung
MDA-N = test system: MDA-N
SK-MEL-2 melanoma = test system: SK-MEL-2 melanoma
SK-OV-3 ovarian = test system: SK-OV-3 ovarian
SR leukemia = test system: SR leukemia
NCI/ADR-RES ovarian = test system: NCI/ADR-RES ovarian
786-0 renal = test system: 786-0 renal
OVCAR-3 ovarian = test system: OVCAR-3 ovarian
SNB-19 CNS = test system: SNB-19 CNS
COLO 205 colon = test system: COLO 205 colon
HOP-92 NSCLC = test system: HOP-92 NSCLC
HS 578T breast = test system: HS 578T breast
M14 melanoma = test system: M14 melanoma
EKVX NSCLC = test system: EKVX NSCLC
NCI-H460 lung = test system: NCI-H460 lung
HCT-15 colon = test system: HCT-15 colon
T-47D breast = test system: T-47D breast
PC-3 prostate = test system: PC-3 prostate
MDA-MB-231 breast = test system: MDA-MB-231 breast
OVCAR-8 ovarian = test system: OVCAR-8 ovarian
HCC-2998 colon = test system: HCC-2998 colon
K-562 leukemia = test system: K-562 leukemia
MCF7 breast = test system: MCF7 breast
U251 CNS = test system: U251 CNS
RXF 393 renal = test system: RXF 393 renal
MDA-MB-435 = test system: MDA-MB-435
HOP-62 NSCLC = test system: HOP-62 NSCLC
CAKI-1 renal = test system: CAKI-1 renal
LOX IMVI melanoma = test system: LOX IMVI melanoma
IGROV1 ovarian = test system: IGROV1 ovarian
SK-MEL-28 melanoma = test system: SK-MEL-28 melanoma
SF-268 CNS = test system: SF-268 CNS
MALME-3M melanoma = test system: MALME-3M melanoma
UACC-257 melanoma = test system: UACC-257 melanoma
CCRF-CEM leukemia = test system: CCRF-CEM leukemia
HT29 colon = test system: HT29 colon
A549 NSCLC = test system: A549 NSCLC
SNB-75 CNS = test system: SNB-75 CNS
SW-620 colon = test system: SW-620 colon
TK-10 renal = test system: TK-10 renal
HL-60(TB) leukemia = test system: HL-60(TB) leukemia
SF-295 CNS = test system: SF-295 CNS
MOLT-4 leukemia = test system: MOLT-4 leukemia
BT-549 breast = test system: BT-549 breast
OVCAR-4 ovarian = test system: OVCAR-4 ovarian
ACHN renal = test system: ACHN renal
NCI-H522 lung = test system: NCI-H522 lung
A498 renal = test system: A498 renal
HCT-116 colon = test system: HCT-116 colon
DU-145 prostate = test system: DU-145 prostate
SK-MEL-5 melanoma = test system: SK-MEL-5 melanoma
KM12 colon = test system: KM12 colon
SN12C renal = test system: SN12C renal
UACC-62 melanoma = test system: UACC-62 melanoma
OVCAR-5 ovarian = test system: OVCAR-5 ovarian
NCI-H226 lung = test system: NCI-H226 lung
RPMI-8226 leukemia = test system: RPMI-8226 leukemia
UO-31 renal = test system: UO-31 renal
SF-539 CNS = test system: SF-539 CNS

In the case of `O=C(Nc1ccccc1)N(CCCCN(Cc1ccccc1)C(=O)Nc1ccccc1)Cc1ccccc1`, the TGI (NCI-H23 lung) is reported as greater than 100 µM, the TGI (MDA-N) is reported as greater than 100 µM and the TGI (SK-MEL-2 melanoma) is reported as greater than 100 µM. It also gave a TGI (SK-OV-3 ovarian) greater than 100 µM, a TGI (SR leukemia) greater than 100 µM and a TGI (NCI/ADR-RES ovarian) greater than 100 µM. It also gave a TGI (786-0 renal) greater than 100 µM, a TGI (OVCAR-3 ovarian) greater than 100 µM and a TGI (SNB-19 CNS) greater than 100 µM. The TGI (COLO 205 colon) was greater than 100 µM, the TGI (HOP-92 NSCLC) was greater than 100 µM and the TGI (HS 578T breast) was greater than 100 µM. The TGI (M14 melanoma) was greater than 100 µM, the TGI (EKVX NSCLC) was greater than 100 µM and the TGI (NCI-H460 lung) was greater than 100 µM. It also gave a TGI (HCT-15 colon) greater than 100 µM, a TGI (T-47D breast) greater than 100 µM and a TGI (PC-3 prostate) greater than 100 µM. The TGI (MDA-MB-231 breast) was greater than 100 µM, the TGI (OVCAR-8 ovarian) was greater than 100 µM and the TGI (HCC-2998 colon) was greater than 100 µM. For the same compound, the TGI (K-562 leukemia) was greater than 100 µM, the TGI (MCF7 breast) was greater than 100 µM and the TGI (U251 CNS) was greater than 100 µM. It also gave a TGI (RXF 393 renal) greater than 100 µM, a TGI (MDA-MB-435) greater than 100 µM and a TGI (HOP-62 NSCLC) greater than 100 µM. The TGI (CAKI-1 renal) was greater than 100 µM, the TGI (LOX IMVI melanoma) was greater than 100 µM and the TGI (IGROV1 ovarian) was greater than 100 µM. It also gave a TGI (SK-MEL-28 melanoma) greater than 100 µM, a TGI (SF-268 CNS) greater than 100 µM and a TGI (MALME-3M melanoma) greater than 100 µM. The TGI (UACC-257 melanoma) was greater than 100 µM, the TGI (CCRF-CEM leukemia) was greater than 100 µM and the TGI (HT29 colon) was greater than 100 µM. The TGI (A549 NSCLC) was greater than 100 µM, the TGI (SNB-75 CNS) was greater than 100 µM and the TGI (SW-620 colon) was greater than 100 µM. The TGI (TK-10 renal) was greater than 100 µM, the TGI (HL-60(TB) leukemia) was greater than 100 µM and the TGI (SF-295 CNS) was greater than 100 µM. The TGI (MOLT-4 leukemia) was greater than 100 µM, the TGI (BT-549 breast) was greater than 100 µM and the TGI (OVCAR-4 ovarian) was greater than 100 µM. For the same compound, the TGI (ACHN renal) was greater than 100 µM, the TGI (NCI-H522 lung) was greater than 100 µM and the TGI (A498 renal) was greater than 100 µM. For the same compound, the TGI (HCT-116 colon) was greater than 100 µM, the TGI (DU-145 prostate) was greater than 100 µM and the TGI (SK-MEL-5 melanoma) was greater than 100 µM. For the same compound, the TGI (KM12 colon) was greater than 100 µM, the TGI (SN12C renal) was greater than 100 µM and the TGI (UACC-62 melanoma) was greater than 100 µM. For the same compound, the TGI (OVCAR-5 ovarian) was greater than 100 µM, the TGI (NCI-H226 lung) was greater than 100 µM and the TGI (RPMI-8226 leukemia) was greater than 100 µM. For the same compound, the TGI (UO-31 renal) was greater than 100 µM.
With `COC(=O)c1c(O)ccc2c1c1c(n2Cc2cccc(C)c2)C(=O)c2ccccc2C1=O` the TGI (NCI-H23 lung) was 26 µM, the TGI (MDA-N) was 33.7 µM and the TGI (SK-MEL-2 melanoma) was 27.4 µM. It also gave a TGI (SK-OV-3 ovarian) of 23.8 µM, a TGI (SR leukemia) of 21 µM and a TGI (NCI/ADR-RES ovarian) of 25 µM. The TGI (786-0 renal) was 25.8 µM, the TGI (OVCAR-3 ovarian) was 22.8 µM and the TGI (SNB-19 CNS) was 27.9 µM. It also gave a TGI (SF-539 CNS) of 28.2 µM, a TGI (COLO 205 colon) of 3.04 µM and a TGI (HOP-92 NSCLC) of 19.8 µM. The TGI (HS 578T breast) was 34.9 µM, the TGI (M14 melanoma) was 32.3 µM and the TGI (EKVX NSCLC) was 37.9 µM. It also gave a TGI (NCI-H460 lung) of 16.7 µM, a TGI (HCT-15 colon) of 24.2 µM and a TGI (T-47D breast) of 12.4 µM. It also gave a TGI (PC-3 prostate) of 23.5 µM, a TGI (MDA-MB-231 breast) of 35.3 µM and a TGI (OVCAR-8 ovarian) of 21.9 µM. The TGI (HCC-2998 colon) was 6.36 µM, the TGI (K-562 leukemia) was 35 µM and the TGI (MCF7 breast) was 20.2 µM. It also gave a TGI (U251 CNS) of 24.4 µM, a TGI (RXF 393 renal) of 26.1 µM and a TGI (MDA-MB-435) of 23.3 µM. The TGI (HOP-62 NSCLC) was 31.3 µM, the TGI (CAKI-1 renal) was 25.7 µM and the TGI (LOX IMVI melanoma) was 26.6 µM. For the same compound, the TGI (IGROV1 ovarian) was 24.2 µM, the TGI (SK-MEL-28 melanoma) was 29.1 µM and the TGI (SF-268 CNS) was 25.9 µM. It also gave a TGI (MALME-3M melanoma) of 34.1 µM, a TGI (UACC-257 melanoma) of 31.2 µM and a TGI (CCRF-CEM leukemia) of 22.5 µM. For the same compound, the TGI (HT29 colon) was 14 µM, the TGI (A549 NSCLC) was 20.3 µM and the TGI (SW-620 colon) was 32.4 µM. It also gave a TGI (TK-10 renal) of 25.2 µM, a TGI (HL-60(TB) leukemia) of 45.9 µM and a TGI (SF-295 CNS) of 30.2 µM. For the same compound, the TGI (MOLT-4 leukemia) was 17.5 µM, the TGI (BT-549 breast) was 29 µM and the TGI (OVCAR-4 ovarian) was 20.1 µM. It also gave a TGI (ACHN renal) of 24.5 µM, a TGI (NCI-H522 lung) of 26.8 µM and a TGI (A498 renal) of 33.9 µM. For the same compound, the TGI (HCT-116 colon) was 20.2 µM, the TGI (DU-145 prostate) was 32.6 µM and the TGI (SK-MEL-5 melanoma) was 26.3 µM. The TGI (KM12 colon) was 28 µM, the TGI (SN12C renal) was 22.2 µM and the TGI (OVCAR-5 ovarian) was 52.7 µM. For the same compound, the TGI (NCI-H226 lung) was 38.8 µM, the TGI (RPMI-8226 leukemia) was 16.9 µM and the TGI (UO-31 renal) was 19.8 µM.
